Biological target: T1, human MRGPRX2 (Homo sapiens, UniProt Q96LB1)
T1 construct: expressed in transfected cells; host or cells: CHO cells, stably transfected (G418 and Hygromycin B selection)
T1 sequence (Q96LB1 1-330): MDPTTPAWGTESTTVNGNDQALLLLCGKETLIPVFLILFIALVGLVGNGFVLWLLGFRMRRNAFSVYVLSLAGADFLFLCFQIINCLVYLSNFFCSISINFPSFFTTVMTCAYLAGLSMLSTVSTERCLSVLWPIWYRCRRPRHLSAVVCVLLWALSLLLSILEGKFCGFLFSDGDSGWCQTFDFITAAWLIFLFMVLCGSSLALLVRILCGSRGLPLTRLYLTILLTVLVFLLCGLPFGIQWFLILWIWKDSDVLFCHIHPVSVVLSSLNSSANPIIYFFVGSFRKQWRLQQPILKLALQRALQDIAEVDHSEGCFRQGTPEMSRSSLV
Assay: MRGPRX2 activity: IP-One Gq HTRF assay in CHO cells, antagonism versus 0.3 uM Cortistatin-14
Type: cell-based
Conditions: versus 0.3 uM Cortistatin-14 agonist, CHO cells expressing human MRGPRX2, read-out: MRGPRX2 Antagonist Activity
Procedure: CHO cells stably transfected to express human MRGPRX2 were maintained in an incubator at 37° C. with 5% CO2 and grown in F12 (HAM) media with 10% fetal bovine serum (FBS), 1% Glutamax, 1% penicillin/streptomycin, 800 μg/mL Geneticin (G418), and 300 μg/mL Hygromycin B.
Cells were plated in a 384-well assay plate at 20,000 cells per well in 12 μL of Opti-MEM and kept in an incubator overnight. On the day of the assay, compounds solubilized at 10 mM in DMSO were added as a 10-point curve (30 uM final top concentration with 1:3 serial dilutions) using a Tecan D300E digital dispenser. Agonists were diluted in assay buffer (final concentrations of 5.7 mM Tris-HCl, 43 mM NaCl, 50 mM LiCl, pH=8) and 2 μL of the agonist Cortistatin-14 (CPC Scientific, catalog CORT-002) are added to each well. Final concentrations of agonists were 0.3 μM Cortistatin. Final concentrations of DMSO were kept consistent across the plate. Plates were incubated in the dark for 1 h at 37° C. and then for 1 h at room temperature. IP-1 standards and HTRF detection reagents were added according to the IP-One—Gq Kit purchased from Cisbio (part number 62IPAPEJ) and incubated in the dark for 1 h at room temperature. The plate was read on a Molecular Devices SpectraMax iD5 plate reader. The HTRF ratio was calculated from the raw data and graphed using GraphPad Prism to calculate an IC50 value for each compound.
The activity ranges are denoted as follows: “+++++” denotes antagonist activity <100 nM; “++++” denotes antagonist activity between 100 and 500 nM; “+++” denotes activity between 501 and 1000 nM; “++” denotes activity between 1001 and 2500 nM; and “+” denotes activity >2500 nM.

Row | SMILES | IC50
1 | O=S1(=O)N=C(NCc2cccc(Cl)c2F)Nc2c1ccc(F)c2Cc1ccccc1Cl [Compound 4-3, 3-((3-chloro-2-fluorobenzyl)amino)-5-(2-chlorobenzyl)-6-fluoro-4H-benzo[e][1,2,4]thiadiazine 1,1-dioxide] | < 100 nM
2 | O=S1(=O)N=C(N2CCc3cccnc3C2)Nc2c1ccc(F)c2Oc1ccccc1Cl [Compound 1-52, 5-(2-chlorophenoxy)-3-(5,8-dihydro-1,7-naphthyridin-7(6H)-yl)-6-fluoro-4H-benzo[e][1,2,4]thiadiazine 1,1-dioxide] | > 2500 nM
3 | O=S1(=O)N=C(NCc2cccc(Cl)c2F)Nc2c1cc(F)c(F)c2Cc1ccccc1Cl [Compound 4-14, 3-((3-chloro-2-fluorobenzyl)amino)-5-(2-chlorobenzyl)-6,7-difluoro-4H-benzo[e][1,2,4]thiadiazine 1,1-dioxide] | 100 to 500 nM
4 | O=S1(=O)N=C(NCc2ccccc2F)Nc2c(C3(c4ccccc4)CC3)cccc21 [Compound 6-19, 3-((2-fluorobenzyl)amino)-5-(1-phenylcyclopropyl)-4H-benzo[e][1,2,4]thiadiazine 1,1-dioxide] | < 100 nM
5 | O=S1(=O)N=C(NCc2ncccc2F)Nc2c1ccc(F)c2Oc1ccc(F)cc1F [Compound 1-39, 5-(2,4-difluorophenoxy)-6-fluoro-3-(((3-fluoropyridin-2-yl)methyl)amino)-4H-benzo[e][1,2,4]thiadiazine 1,1-dioxide] | < 100 nM
6 | O=S1(=O)N=C(NCc2cccc3ccccc23)Nc2c1cc(F)c(F)c2Cc1ccccc1Cl [Compound 4-20, 5-(2-chlorobenzyl)-6,7-difluoro-3-((naphthalen-1-ylmethyl)amino)-4H-benzo[e][1,2,4]thiadiazine 1,1-dioxide] | 501 to 1000 nM
7 | CC(C)(F)CNC1=NS(=O)(=O)c2cccc(Oc3ccccc3Cl)c2N1 [Compound 1-244, 5-(2-chlorophenoxy)-3-((2-fluoro-2-methylpropyl)amino)-4H-benzo[e][1,2,4]thiadiazine 1,1-dioxide] | 1000 to 2500 nM
8 | O=S1(=O)N=C(NCc2ncccc2F)Nc2c(Oc3ccccc3Cl)c(F)cc(Cl)c21 [Compound 1-41, 8-chloro-5-(2-chlorophenoxy)-6-fluoro-3-(((3-fluoropyridin-2-yl)methyl)amino)-4H-benzo[e][1,2,4]thiadiazine 1,1-dioxide] | 100 to 500 nM
9 | CC(c1ccccc1F)c1c(F)ccc2c1NC(NCc1cccc(F)n1)=NS2(=O)=O (centres unmarked) [Compound 9-5, 6-fluoro-5-(1-(2-fluorophenyl)ethyl)-3-(((6-fluoropyridin-2-yl)methyl)amino)-4H-benzo[e][1,2,4]thiadiazine 1,1-dioxide] | < 100 nM
10 | Cc1c(F)cccc1CNC1=NS(=O)(=O)c2ccc(F)c(Oc3ccccc3Cl)c2N1 [Compound 1-24, 5-(2-chlorophenoxy)-6-fluoro-3-((3-fluoro-2-methylbenzyl)amino)-4H-benzo[e][1,2,4]thiadiazine 1,1-dioxide] | < 100 nM
11 | O=S1(=O)N=C(NCc2ncccc2O)Nc2c1ccc(F)c2Oc1ccccc1Cl [Compound 1-37, 5-(2-chlorophenoxy)-6-fluoro-3-(((3-hydroxypyridin-2-yl)methyl)amino)-4H-benzo[e][1,2,4]thiadiazine 1,1-dioxide] | > 2500 nM
12 | O=S1(=O)N=C(NCc2ncccc2F)Nc2c(Oc3ccccc3Cl)c(F)cc(F)c21 [Compound 1-1, 5-(2-chlorophenoxy)-6,8-difluoro-3-(((3-fluoropyridin-2-yl)methyl)amino)-4H-benzo[e][1,2,4]thiadiazine 1,1-dioxide] | 100 to 500 nM
13 | O=S1(=O)N=C(NCc2ccccc2C(F)(F)F)Nc2c1cc(F)c(F)c2Oc1ccccc1Cl [Compound 1-22, 5-(2-chlorophenoxy)-6,7-difluoro-3-((2-(trifluoromethyl)benzyl)amino)-4H-benzo[e][1,2,4]thiadiazine 1,1-dioxide] | 100 to 500 nM
14 | O=S1(=O)N=C(NCc2cc(F)ccc2F)Nc2c1ccc(F)c2Oc1ccccc1Cl [Compound 1-23, 5-(2-chlorophenoxy)-3-((2,5-difluorobenzyl)amino)-6-fluoro-4H-benzo[e][1,2,4]thiadiazine 1,1-dioxide] | < 100 nM
15 | O=S1(=O)N=C(NCc2ccccc2)Nc2c1ccc(F)c2Oc1ccccc1Cl [Compound 1-49, 3-(benzylamino)-5-(2-chlorophenoxy)-6-fluoro-4H-benzo[e][1,2,4]thiadiazine 1,1-dioxide] | < 100 nM
16 | O=S1(=O)N=C(NCc2ncccc2C(F)(F)F)Nc2c1ccc(F)c2Oc1ccccc1Cl [Compound 1-26, 5-(2-chlorophenoxy)-6-fluoro-3-(((3-(trifluoromethyl)pyridin-2-yl)methyl)amino)-4H-benzo[e][1,2,4]thiadiazine 1,1-dioxide] | 1000 to 2500 nM

Next, values leading:

Row | IC50 | SMILES
17 | < 100 nM | O=S1(=O)N=C(NCc2cccnc2F)Nc2c(Cc3ccccc3Cl)cccc21 [Compound 12-28, 5-(2-chlorobenzyl)-3-(((2-fluoropyridin-3-yl)methyl)amino)-4H-benzo[e][1,2,4]thiadiazine 1,1-dioxide]
18 | 100 to 500 nM | O=C(c1ccccc1Cl)c1cccc2c1NC(NCc1ncccc1F)=NS2(=O)=O [Compound 16-5, (2-chlorophenyl)(3-(((3-fluoropyridin-2-yl)methyl)amino)-1,1-dioxido-4H-benzo[e][1,2,4]thiadiazin-5-yl)methanone]
19 | < 100 nM | O=S1(=O)N=C(NCc2ccncc2Cl)Nc2c(Cc3ccccc3Cl)cccc21 [Compound 12-17, 5-(2-chlorobenzyl)-3-(((3-chloropyridin-4-yl)methyl)amino)-4H-benzo[e][1,2,4]thiadiazine 1,1-dioxide]
20 | < 100 nM | O=S1(=O)N=C(NCc2ncccc2Cl)Nc2c(Cc3ccccc3Cl)cccc21 [Compound 12-3, 5-(2-chlorobenzyl)-3-(((3-chloropyridin-2-yl)methyl)amino)-4H-benzo[e][1,2,4]thiadiazine 1,1-dioxide]
21 | < 100 nM | O=S1(=O)N=C(NCc2ccc(F)cc2F)Nc2c(Cc3ccccc3Cl)cccc21 [Compound 12-11, 5-(2-chlorobenzyl)-3-((2,4-difluorobenzyl)amino)-4H-benzo[e][1,2,4]thiadiazine 1,1-dioxide]
22 | < 100 nM | Cc1c(F)cccc1CNC1=NS(=O)(=O)c2ccc(F)c(C(C)c3cccc(Cl)c3Cl)c2N1 (centres unmarked) [Compound 8-3, 5-(1-(2,3-dichlorophenyl)ethyl)-6-fluoro-3-((3-fluoro-2-methylbenzyl)amino)-4H-benzo[e][1,2,4]thiadiazine 1,1-dioxide]
23 | < 100 nM | O=S1(=O)N=C(NCc2ccccc2Cl)Nc2c(Cc3ccccc3Cl)cccc21 [Compound 12-1, 5-(2-chlorobenzyl)-3-((2-chlorobenzyl)amino)-4H-benzo[e][1,2,4]thiadiazine 1,1-dioxide]
24 | 100 to 500 nM | CC(c1ccccc1F)c1c(F)ccc2c1NC(NCc1cccnc1)=NS2(=O)=O (centres unmarked) [Compound 7-3, 6-fluoro-5-(1-(2-fluorophenyl)ethyl)-3-((pyridin-3-ylmethyl)amino)-4H-benzo[e][1,2,4]thiadiazine 1,1-dioxide]
25 | < 100 nM | Cc1ccc(CNC2=NS(=O)(=O)c3cccc(Cc4ccccc4Cl)c3N2)c(Cl)c1 [Compound 12-5, 3-((2-chloro-4-methylbenzyl)amino)-5-(2-chlorobenzyl)-4H-benzo[e][1,2,4]thiadiazine 1,1-dioxide]
26 | < 100 nM | O=S1(=O)N=C(NCc2ccc(F)cc2Cl)Nc2c(Cc3ccccc3Cl)cccc21 [Compound 12-4, 3-((2-chloro-4-fluorobenzyl)amino)-5-(2-chlorobenzyl)-4H-benzo[e][1,2,4]thiadiazine 1,1-dioxide]
27 | < 100 nM | Cc1cccc(CNC2=NS(=O)(=O)c3cccc(Cc4ccccc4Cl)c3N2)c1 [Compound 12-20, 5-(2-chlorobenzyl)-3-((3-methylbenzyl)amino)-4H-benzo[e][1,2,4]thiadiazine 1,1-dioxide]
28 | < 100 nM | O=S1(=O)N=C(NCc2ccccc2C(F)(F)F)Nc2c(Cc3ccccc3Cl)cccc21 [Compound 12-27, 5-(2-chlorobenzyl)-3-((2-(trifluoromethyl)benzyl)amino)-4H-benzo[e][1,2,4]thiadiazine 1,1-dioxide]
29 | < 100 nM | O=C(c1ccccc1Cl)c1cccc2c1NC(NCc1ncccc1C(F)(F)F)=NS2(=O)=O [Compound 16-4, (2-chlorophenyl)(1,1-dioxido-3-(((3-(trifluoromethyl)pyridin-2-yl)methyl)amino)-4H-benzo[e][1,2,4]thiadiazin-5-yl)methanone]
